Reference: ChEMBL document CHEMBL1132825, “Aminoanthraquinones as novel ligands at the polyamine binding site on the N-methyl-D-aspartate receptor complex” (Bioorg Med Chem Lett, 2000)

Experiments:
Glutamate NMDA receptor [1] = assay: Displacement of [3H]MK-801 from N-methyl-D-aspartate glutamate receptor; type: protein-complex assay, Rattus norvegicus
Glutamate NMDA receptor [2] = assay: Displacement of [3H]-SPD from N-methyl-D-aspartate glutamate receptor; type: protein-complex assay, Rattus norvegicus

Row | SMILES | IC50 (Glutamate NMDA receptor [1]) [µM] | IC50 (Glutamate NMDA receptor [2]) [µM]
1 | Nc1ccc2c(c1)C(=O)c1ccc(N)cc1C2=O | > 1000 | > 1000
2 | Nc1ccc2c(c1)C(=O)c1ccccc1C2=O | 119 | 116
3 | Nc1ccc2c(c1N)C(=O)c1ccccc1C2=O | 414 | 602
4 | Nc1ccc(O)c2c1C(=O)c1c(N)ccc(O)c1C2=O | > 1000 | > 1000
5 | Nc1ccc(N)c2c1C(=O)c1ccccc1C2=O | 567 | 412
6 | Nc1cccc2c1C(=O)c1ccccc1C2=O | 140 | 218
7 | Nc1cccc2c1C(=O)c1c(N)ccc(N)c1C2=O | 232 | 184
8 | O=C1c2ccccc2C(=O)c2ccccc21 [ANTHRAQUINONE] | > 1000 | > 1000
9 | Nc1ccc(N)c2c1C(=O)c1c(N)ccc(N)c1C2=O | > 1000 | > 1000
10 | Nc1ccc(O)c2c1C(=O)c1ccccc1C2=O | 158 | 179
11 | Nc1cccc2c1C(=O)c1cccc(N)c1C2=O | 323 | 338
